Key:
morningglory = test: Test A pre-/postemergence greenhouse test; type: in vivo, Ipomoea spp.; conditions: for Plant response rating, Morningglory: 0 to 100 scale where 0 is no effect and 100 is complete control; for Morningglory plant response rating: 0 to 100 scale
Summary of the method: (§1)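 Visual injury ratings against untreated controls, taken roughly ten days after treatment in greenhouse. Plants were sprayed postemergence at one- to two-leaf stage (2–10 cm tall); at the same time, seeded loam/sand soil received a directed preemergence spray. Formulation: non-phytotoxic solvent mixture with surfactant.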

crabgrass = test: Test C pre-/postemergence test; type: in vivo, Digitaria sanguinalis
Summary of the method: (§2)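 Test chemicals were formulated with surfactant in a non-phytotoxic solvent and sprayed both on freshly planted seeds (preemergence) and on 1- to 4-leaf plants of 2–18 cm (postemergence). Flooded-paddy pots received compound directly into 3 cm of standing water, maintained for the test.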

wheat [1] = test: Test A pre-/postemergence greenhouse test; type: in vivo, Triticum aestivum; conditions: for Plant response rating, Wheat: 0 to 100 scale where 0 is no effect and 100 is complete control; for Wheat plant response rating: 0 to 100 scale
Summary of the method: as §1

umbrella sedge = test: Test C flooded paddy test; type: in vivo, Cyperus difformis; conditions: Flood
Summary of the method: (§3)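 Flooded 3 cm over soil; compound into paddy water; depth kept constant. Greenhouse 13–15 d.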

rice = test: Test C flooded paddy test; type: in vivo, Oryza sativa; conditions: Flood
Summary of the method: as §3

pigweed = test: Test C pre-/postemergence test; type: in vivo, Amaranthus retroflexus
Summary of the method: as §2

redroot pigweed = test: Test A pre-/postemergence greenhouse test; type: in vivo, Amaranthus retroflexus; conditions: for Plant response rating, Pigweed: 0 to 100 scale where 0 is no effect and 100 is complete control; for Pigweed plant response rating: 0 to 100 scale
Summary of the method: as §1

giant foxtail = test: Test A pre-/postemergence greenhouse test; type: in vivo, Setaria faberi; conditions: for Plant response rating, Foxtail, Giant: 0 to 100 scale where 0 is no effect and 100 is complete control; for Foxtail, Giant plant response rating: 0 to 100 scale
Summary of the method: as §1

barnyardgrass = test: Test A pre-/postemergence greenhouse test; type: in vivo, Echinochloa crus-galli; conditions: for Plant response rating, Barnyardgrass: 0 to 100 scale where 0 is no effect and 100 is complete control; for Barnyardgrass plant response rating: 0 to 100 scale
Summary of the method: as §1

wheat [2] = test: Test C pre-/postemergence test; type: in vivo, Triticum aestivum
Summary of the method: as §2

lambsquarters = test: Test C pre-/postemergence test; type: in vivo, Chenopodium album
Summary of the method: as §2

Goosegrass = test: Test C pre-/postemergence test; type: in vivo, Eleusin indica
Summary of the method: as §2

corn = test: Test A pre-/postemergence greenhouse test; type: in vivo, Zea mays; conditions: for Plant response rating, Corn: 0 to 100 scale where 0 is no effect and 100 is complete control; for Corn plant response rating: 0 to 100 scale
Summary of the method: as §1

Surinam grass = test: Test C pre-/postemergence test; type: in vivo, Brachiaria decumbens
Summary of the method: as §2

bermudagrass = test: Test C pre-/postemergence test; type: in vivo, Cynodon dactylon
Summary of the method: as §2

eastern black nightshade = test: Test C pre-/postemergence test; type: in vivo, Solanum ptycanthum
Summary of the method: as §2

[3] = tested on: common (oilseed) sunflower; test: Test C pre-/postemergence test; type: in vivo, Helianthus annuus
Summary of the method: as §2

[4] = Postemergence, 500 g ai/ha, 0 is no effect, 100 is complete control
[5] = Preemergence, 125 g ai/ha, 0 no effect, 100 complete control
[6] = 62 g ai/ha, Preemergence, scale 0 to 100
[7] = 125 g ai/ha, preemergence, scale 0 (no effect) to 100 (complete control)
[8] = Preemergence, 31 g ai/ha, scale 0 to 100 (0 no effect, 100 complete control)
[9] = preemergence, 250 g ai/ha, scale 0 (no effect) to 100 (complete control)
[10] = 62 g ai/ha, scale 0 to 100 (0 no effect, 100 complete control)
[11] = 250 g ai/ha, scale 0 to 100, 0 no effect, 100 complete control, 13 to 15 days
[12] = Postemergence, 125 g ai/ha, 0 is no effect, 100 is complete control
[13] = 31 g ai/ha, Preemergence, scale 0 to 100
[14] = 62 g ai/ha, preemergence, scale 0 (no effect) to 100 (complete control)
[15] = preemergence, 125 g ai/ha, scale 0 (no effect) to 100 (complete control)
[16] = 31 g ai/ha, scale 0 to 100 (0 no effect, 100 complete control)
[17] = 62 g ai/ha, scale 0 to 100, 0 no effect, 100 complete control, 13 to 15 days
[18] = 125 g ai/ha, scale 0 to 100, 0 no effect, 100 complete control, 13 to 15 days
[19] = 250 g ai/ha, scale 0 to 100 (0 no effect, 100 complete control)

Cn1nc(C(F)(F)F)c(CS(=O)(=O)c2cccc[n+]2[O-])c1OCC(F)F [Compound 81]
30: Plant response rating, Morningglory (morningglory; Postemergence, 125 g ai/ha) | Corn plant response rating (corn; [5])
70: Pigweed plant response rating (redroot pigweed; [4]) | Plant response rating, Corn (corn; Preemergence, 500 g ai/ha) | Plant response rating, Surinam Grass (Surinam grass; [8]) | Nightshade plant response rating (eastern black nightshade; [6])
80: Plant response rating, Morningglory (morningglory; Preemergence, 500 g ai/ha) | Crabgrass, Large plant response rating (crabgrass; [6]) | Plant response rating, Wheat (wheat [1]; Preemergence, 500 g ai/ha) | Plant response rating, Foxtail, Giant (giant foxtail; Postemergence, 125 g ai/ha) | Foxtail, Giant plant response rating (giant foxtail; [4]) | Barnyardgrass plant response rating (barnyardgrass; [4]) | Wheat plant response rating (wheat [2]; [7]) | Wheat plant response rating (wheat [2]; [9]) | Plant response rating, Lambsquarters (lambsquarters; [8]) | Surinam Grass plant response rating (Surinam grass; [6]) | Plant response rating, Bermudagrass (bermudagrass; [8])
5: Wheat plant response rating (wheat [2]; [6])
55: Plant response rating, Goosegrass (Goosegrass; [8])
98: Crabgrass, Large plant response rating (crabgrass; [7]) | Crabgrass, Large plant response rating (crabgrass; [9]) | Pigweed plant response rating (pigweed; [6]) | Goosegrass plant response rating (Goosegrass; [6])
100: Pigweed plant response rating (pigweed; [7]) | Pigweed plant response rating (pigweed; [9]) | Plant response rating, Pigweed (redroot pigweed; Preemergence, 500 g ai/ha) | Plant response rating, Foxtail, Giant (giant foxtail; Preemergence, 500 g ai/ha) | Plant response rating, Barnyardgrass (barnyardgrass; Preemergence, 500 g ai/ha) | Lambsquarters plant response rating (lambsquarters; [6]) | Lambsquarters plant response rating (lambsquarters; [7]) | Lambsquarters plant response rating (lambsquarters; [9]) | Goosegrass plant response rating (Goosegrass; [7]) | Goosegrass plant response rating (Goosegrass; [9]) | Surinam Grass plant response rating (Surinam grass; [7]) | Surinam Grass plant response rating (Surinam grass; [9]) | Bermudagrass plant response rating (bermudagrass; 62 g ai/ha, Preemergence, scale 0 to 100 (0 no effect, 100 complete control)) | Bermudagrass plant response rating (bermudagrass; [7]) | Bermudagrass plant response rating (bermudagrass; [9])
95: Plant response rating, Sedge, Umbrella (umbrella sedge; [11])
90: Pigweed plant response rating (redroot pigweed; [5]) | Foxtail, Giant plant response rating (giant foxtail; [5]) | Barnyardgrass plant response rating (barnyardgrass; [5]) | Nightshade plant response rating (eastern black nightshade; [7]) | Nightshade plant response rating (eastern black nightshade; [9])
60: Plant response rating, Crabgrass, Large (crabgrass; [8]) | Wheat plant response rating (wheat [1]; [4]) | Plant response rating, Barnyardgrass (barnyardgrass; Postemergence, 125 g ai/ha)
50: Morningglory plant response rating (morningglory; [4]) | Corn plant response rating (corn; [4]) | Sunflower plant response rating [3, 7]
0: Morningglory plant response rating (morningglory; [5]) | Plant response rating, Rice (rice; [10]) | Plant response rating, Rice (rice; [11]) | Plant response rating, Pigweed (pigweed; [8]) | Plant response rating, Wheat (wheat [2]; [8]) | Plant response rating, Corn (corn; Postemergence, 125 g ai/ha) | Plant response rating, Nightshade (eastern black nightshade; [8]) | Sunflower plant response rating [3, 6] | Plant response rating, Sunflower [3, 8]
20: Plant response rating, Wheat (wheat [1]; Postemergence, 125 g ai/ha)
75: Plant response rating, Sedge, Umbrella (umbrella sedge; [10]) | Sunflower plant response rating [3, 9]
40: Plant response rating, Pigweed (redroot pigweed; Postemergence, 125 g ai/ha)
10: Wheat plant response rating (wheat [1]; [5])

Cn1nc(C(F)(F)F)c(C[S+]([O-])c2cccc[n+]2[O-])c1Cl (stereo not drawn) [Compound 8]
90: Morningglory plant response rating (morningglory; [5]) | Plant response rating, Morningglory (morningglory; Preemergence, 500 g ai/ha) | Crabgrass, Large plant response rating (crabgrass; [13]) | Foxtail, Giant plant response rating (giant foxtail; [4]) | Barnyardgrass plant response rating (barnyardgrass; [5])
0: Plant response rating, Sedge, Umbrella (umbrella sedge; [16]) | Plant response rating, Sedge, Umbrella (umbrella sedge; [17]) | Plant response rating, Rice (rice; [16]) | Plant response rating, Rice (rice; [17]) | Plant response rating, Rice (rice; [18])
80: Foxtail, Giant plant response rating (giant foxtail; [12]) | Barnyardgrass plant response rating (barnyardgrass; [12]) | Barnyardgrass plant response rating (barnyardgrass; [4]) | Plant response rating (0 to 100), Wheat (wheat [2]; Preemergence, 250 g ai/ha) | Lambsquarters plant response rating (lambsquarters; [13]) | Bermudagrass plant response rating (bermudagrass; [13]) | Nightshade plant response rating (eastern black nightshade; [13])
30: Wheat plant response rating (wheat [1]; [12]) | Wheat plant response rating (wheat [2]; [14]) | Sunflower plant response rating [3, 14]
60: Morningglory plant response rating (morningglory; [12]) | Wheat plant response rating (wheat [1]; [4]) | Wheat plant response rating (wheat [1]; [5]) | Pigweed plant response rating (redroot pigweed; [4]) | Corn plant response rating (corn; [4]) | Sunflower plant response rating [3, 15]
20: Plant response rating, Rice (rice; [19]) | Pigweed plant response rating (redroot pigweed; [12]) | Corn plant response rating (corn; [5])
98: Lambsquarters plant response rating (lambsquarters; [14]) | Goosegrass plant response rating (Goosegrass; [13])
70: Morningglory plant response rating (morningglory; [4]) | Plant response rating, Wheat (wheat [1]; Preemergence, 500 g ai/ha) | Plant response rating, Corn (corn; Preemergence, 500 g ai/ha)
50: Wheat plant response rating (wheat [2]; [15]) | Corn plant response rating (corn; [12])
85: Plant response rating, Sedge, Umbrella (umbrella sedge; [18]) | Pigweed plant response rating (pigweed; [13]) | Surinam Grass plant response rating (Surinam grass; [14]) | Nightshade plant response rating (eastern black nightshade; [14])
100: Crabgrass, Large plant response rating (crabgrass; [14]) | Plant response rating (0 to 100), Crabgrass, Large (crabgrass; Preemergence, 250 g ai/ha) | Crabgrass, Large plant response rating (crabgrass; [15]) | Plant response rating, Sedge, Umbrella (umbrella sedge; [19]) | Pigweed plant response rating (pigweed; [14]) | Plant response rating (0 to 100), Pigweed (pigweed; Preemergence, 250 g ai/ha) | Pigweed plant response rating (pigweed; [15]) | Pigweed plant response rating (redroot pigweed; [5]) | Plant response rating, Pigweed (redroot pigweed; Preemergence, 500 g ai/ha) | Foxtail, Giant plant response rating (giant foxtail; [5]) | Plant response rating, Foxtail, Giant (giant foxtail; Preemergence, 500 g ai/ha) | Plant response rating, Barnyardgrass (barnyardgrass; Preemergence, 500 g ai/ha) | Plant response rating (0 to 100), Lambsquarters (lambsquarters; Preemergence, 250 g ai/ha) | Lambsquarters plant response rating (lambsquarters; [15]) | Goosegrass plant response rating (Goosegrass; [14]) | Plant response rating (0 to 100), Goosegrass (Goosegrass; Preemergence, 250 g ai/ha) | Goosegrass plant response rating (Goosegrass; [15]) | Plant response rating (0 to 100), Surinam Grass (Surinam grass; Preemergence, 250 g ai/ha) | Surinam Grass plant response rating (Surinam grass; [15]) | Bermudagrass plant response rating (bermudagrass; [14]) | Plant response rating (0 to 100), Bermudagrass (bermudagrass; Preemergence, 250 g ai/ha) | Bermudagrass plant response rating (bermudagrass; [15]) | Plant response rating (0 to 100), Nightshade (eastern black nightshade; Preemergence, 250 g ai/ha) | Nightshade plant response rating (eastern black nightshade; [15]) | Plant response rating (0 to 100), Sunflower ([3]; Preemergence, 250 g ai/ha)

Reference: patent publication US20100298141A1, “SUBSTITUTED PYRIDINE N-OXIDE HERBICIDES” (E. I. DU PONT DE NEMOURS AND COMPANY, priority 2007, published 2010)
